Measurements as given in patent publication US20110092544A1, “FUNGICIDAL PYRIDINES” (E.I. DU PONT DE nemours and company, priority 2008, published 2011).

How the values were obtained:
Type in all cases: in vivo
[1] = tested on: Puccinia recondite f. sp. tritici; assay: Test B: wheat leaf rust, preventive spray on wheat seedlings, visual disease rating; details: 200 ppm, 100 = 100% disease control, 0 = no control; for pest or weed control at 200 ppm: 192 h
Summary of the method: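 Wheat seedlings were sprayed to run-off with compound suspension, 200 ppm (≈500 g/ha) or 40 ppm where marked, containing surfactant in acetone/water. Inoculation with Puccinia recondita spores followed one day later, then 24 h in saturated humidity at 20° C and 7 days at 20° C. Disease control was rated visually, 0–100% versus controls.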

[2] = tested on: Alternaria solani; assay: Test E: tomato early blight, preventive spray on tomato seedlings, visual disease rating; details: 200 ppm, 100 = 100% disease control, 0 = no control; for pest or weed control at 200 ppm: Alternaria solani, 168 h
Summary of the method: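 Seedlings sprayed to run-off with compound in acetone/water plus 250 ppm Trem 014 (200 ppm ≈ 500 g/ha), inoculated with spores next day. Held 48 h saturated at 27 °C, then 5 days at 20 °C; visual rating 0–100% disease control relative to controls.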

[3] = tested on: Septoria nodorum; assay: Test D: wheat glume blotch, preventive spray on wheat seedlings, visual disease rating; details: 200 ppm, 100 = 100% disease control, 0 = no control; for pest or weed control at 200 ppm: Parastagonospora nodorum, 216 h
Summary of the method: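 Compounds in 3% acetone, then 50/50 acetone–water with 250 ppm Trem 014, sprayed to run-off at 200 ppm (500 g/ha; some at 40 ppm) one day before spore inoculation. Held 48 h saturated at 20 °C, then 7 days at 20 °C; visual rating as % disease control vs untreated (0–100).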

[4] = tested on: Septoria tritici; assay: Test C: wheat leaf blotch, preventive spray on wheat seedlings, visual disease rating; details: 200 ppm, 100 = 100% disease control, 0 = no control; for pest or weed control at 200 ppm: Zymoseptoria tritici, 504 h
Summary of the method: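 Wheat seedlings sprayed to run-off with compound in acetone/water plus 250 ppm surfactant at 200 ppm (≈500 g/ha), or 40 ppm where marked; inoculated with Septoria tritici next day. Held saturated at 20 °C for 48 h, then 19 days at 20 °C; disease control rated visually 0–100 versus controls.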

[5] = tested on: Botrytis cinerea; assay: Test F: tomato botrytis, preventive spray on tomato seedlings, visual disease rating; details: 200 ppm, 100 = 100% disease control, 0 = no control; for pest or weed control at 200 ppm: Botrytis cinerea, 120 h
Summary of the method: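 Tomato seedlings sprayed to run-off with compound suspended in acetone/water (50/50) plus 250 ppm Trem 014, at 200 ppm (≈500 g/ha) or 40 ppm where marked. Inoculated next day with B. cinerea spores, 48 h saturated atmosphere at 20 °C, then 3 days at 24 °C. Visual rating, 0–100% disease control relative to controls.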

[6] = tested on: Erysiphe graminis f. sp. tritici; assay: Test A: wheat powdery mildew, preventive spray on wheat seedlings, visual disease rating; details: 200 ppm, 100 = 100% disease control, 0 = no control; for pest or weed control at 200 ppm: Blumeria graminis, 192 h
Summary of the method: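 Acetone/water (50/50) suspension with 250 ppm surfactant sprayed to run-off on wheat seedlings (200 ppm ≈ 500 g/ha); inoculated next day with E. graminis spore dust. Incubated 8 days at 20° C, then visually rated 0–100% disease control versus untreated controls; tests at 200 ppm or 40 ppm.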

[7] = tested on: Rhizoctonia oryzae; assay: Test G: turf brown patch, preventive spray on creeping bent grass seedlings, visual disease rating; details: 200 ppm, 100 = 100% disease control, 0 = no control; for pest or weed control at 200 ppm: Waitea circinata, in Agrostis stolonifera, 120 h
Text: (§1) General protocol for preparing test suspensions for Tests A-H: The test compounds were first dissolved in acetone in an amount equal to 3% of the final volume and then suspended at the desired concentration (in ppm) in acetone and purified water (50/50 mix) containing 250 ppm of the surfactant Trem® 014 (polyhydric alcohol esters). The resulting test suspensions were then used in tests A-H. Spraying a 200 ppm test suspension to the point of run-off on the test plants was the equivalent of a rate of 500 g/ha.
The test suspension was sprayed to the point of run-off on creeping bent grass seedlings. The following day the seedlings were inoculated with a spore suspension of Rhizoctonia oryzae (the causal agent of turf brown patch) and incubated in a saturated atmosphere at 27° C. for 48 h, and then moved to a growth chamber at 27° C. for 3 days, after which time disease ratings were visually made.
(§2) Results for Tests A-H are given in Table A. In the table, a rating of 100 indicates 100% disease control and a rating of 0 indicates no disease control (relative to the controls). A dash (-) indicates no test results. All results are for compounds tested at 200 ppm except where the compound number is followed by “*” which indicates the compound was tested at 40 ppm.

[8] = tested on: Plasmopara viticola; assay: Test H: grape downy mildew, spray after inoculation of grape seedlings, visual disease rating; details: 200 ppm, 100 = 100% disease control, 0 = no control; for pest or weed control at 200 ppm: Plasmopara viticola, 192 h
Text: as §1
Grape seedlings were inoculated with a spore suspension of Plasmopara viticola (the causal agent of grape downy mildew) and incubated in a saturated atmosphere at 20° C. for 24 h. After a short drying period, the test suspension was sprayed to the point of run-off on the grape seedlings, and then moved to a growth chamber at 20° C. for 6 days, after which time the test units were placed back into a saturated atmosphere at 20° C. for 24 h. Upon removal, disease ratings were visually made.
as §2

SMILES: COc1cc(OC)cc(-c2c(-c3ccc(F)cc3F)cnc(C)c2-c2ccc(F)cc2)c1 [Compound 38]
- Test B rating (% disease control) [1]: 80%
- Test E rating (% disease control) [2]: 87%
- Test D rating (% disease control) [3]: 0%
- Test C rating (% disease control) [4]: 100%
- Test F rating (% disease control) [5]: 98%
- Test A rating (% disease control) [6]: 95%
- Test G rating (% disease control) [7]: 56%
- Test H rating (% disease control) [8]: 0%

SMILES: COc1cc(OC)cc(-c2c(-c3ccc(F)cc3)cnc(C)c2-c2ccccc2)c1 [Compound 36]
- Test B rating (% disease control) [1]: 0%
- Test E rating (% disease control) [2]: 30%
- Test D rating (% disease control) [3]: 0%
- Test C rating (% disease control) [4]: 93%
- Test F rating (% disease control) [5]: 94%
- Test A rating (% disease control) [6]: 65%
- Test G rating (% disease control) [7]: 14%
- Test H rating (% disease control) [8]: 0%

SMILES: COc1cc(OC)cc(-c2c(-c3ccccc3)c(C)nc(C)c2-c2ccc(F)cc2)c1 [Compound 22]
- Test B rating (% disease control) [1]: 55%
- Test E rating (% disease control) [2]: 0%
- Test D rating (% disease control) [3]: 0%
- Test C rating (% disease control) [4]: 95%
- Test F rating (% disease control) [5]: 99%
- Test A rating (% disease control) [6]: 78%
- Test G rating (% disease control) [7]: 0%
- Test H rating (% disease control) [8]: 0%

SMILES: COc1cc(OC)cc(-c2c(C(C)=O)cnc(C)c2-c2ccccc2F)c1 [Compound 17]
- Test B rating (% disease control) [1]: 98%
- Test E rating (% disease control) [2]: 46%
- Test D rating (% disease control) [3]: 0%
- Test C rating (% disease control) [4]: 100%
- Test F rating (% disease control) [5]: 99%
- Test A rating (% disease control) [6]: 96%
- Test G rating (% disease control) [7]: 60%
- Test H rating (% disease control) [8]: 0%

SMILES: COc1cc(OC)cc(-c2c(-c3ccccc3)cnc(C)c2-c2ccc(F)cc2)c1 [Compound 34, 4-(3,5-dimethoxyphenyl)-3-(4-fluorophenyl)-5-phenyl-2-methylpyridine]
- pest or weed control at 200 ppm [1]: 96%
- pest or weed control at 200 ppm [2]: 96%
- pest or weed control at 200 ppm [3]: 77%
- pest or weed control at 200 ppm [4]: 100%
- pest or weed control at 200 ppm [5]: 99%
- pest or weed control at 200 ppm [6]: 96%
- pest or weed control at 200 ppm [7]: 63%
- pest or weed control at 200 ppm [8]: 0%

SMILES: CCOC(=O)c1cnc(C)c(-c2ccccc2)c1-c1cc(OC)ccc1Cl [Compound 7]
- Test B rating (% disease control) [1]: 74%
- Test E rating (% disease control) [2]: 0%
- Test D rating (% disease control) [3]: 0%
- Test C rating (% disease control) [4]: 52%
- Test F rating (% disease control) [5]: 98%
- Test A rating (% disease control) [6]: 97%
- Test G rating (% disease control) [7]: 97%
- Test H rating (% disease control) [8]: 0%

SMILES: CCOC(=O)c1cnc(C)c(-c2ccccc2F)c1-c1cc(OC)cc(OC)c1 [Compound 20]
- Test B rating (% disease control) [1]: 90%
- Test E rating (% disease control) [2]: 0%
- Test D rating (% disease control) [3]: 0%
- Test C rating (% disease control) [4]: 100%
- Test F rating (% disease control) [5]: 99%
- Test A rating (% disease control) [6]: 98%
- Test G rating (% disease control) [7]: 0%
- Test H rating (% disease control) [8]: 53%

SMILES: COc1cc(OC)cc(-c2c(-c3ccccc3F)c[n+]([O-])c(C)c2-c2ccc(F)cc2)c1 [Compound 39, 4-(3,5-dimethoxyphenyl)-5-(2-fluorophenyl)-3-(4-fluorophenyl)-2-methylpyridine 1-oxide]
- pest or weed control at 200 ppm [1]: 100%
- pest or weed control at 200 ppm [2]: 100%
- pest or weed control at 200 ppm [3]: 100%
- pest or weed control at 200 ppm [4]: 100%
- pest or weed control at 200 ppm [5]: 94%
- pest or weed control at 200 ppm [6]: 98%
- pest or weed control at 200 ppm [7]: 35%
- pest or weed control at 200 ppm [8]: 0%

SMILES: COc1cc(OC)cc(-c2c(C(C)C)cnc(C)c2-c2ccccc2)c1 [Compound 4]
- Test B rating (% disease control) [1]: 92%
- Test E rating (% disease control) [2]: 99%
- Test D rating (% disease control) [3]: 0%
- Test C rating (% disease control) [4]: 99%
- Test F rating (% disease control) [5]: 99%
- Test A rating (% disease control) [6]: 99%
- Test G rating (% disease control) [7]: 0%
- Test H rating (% disease control) [8]: 0%

SMILES: COc1cc(OC)cc(-c2c(-c3ccccc3F)cnc(C)c2-c2ccccc2)c1 [Compound 32]
- Test B rating (% disease control) [1]: 96%
- Test E rating (% disease control) [2]: 59%
- Test D rating (% disease control) [3]: 0%
- Test C rating (% disease control) [4]: 99%
- Test F rating (% disease control) [5]: 99%
- Test A rating (% disease control) [6]: 98%
- Test G rating (% disease control) [7]: 99%
- Test H rating (% disease control) [8]: 0%

SMILES: COc1cc(OC)cc(-c2c(C(C)=O)cnc(C)c2-c2c(F)cc(F)cc2F)c1 [Compound 40, 1-[4-(3,5-dimethoxyphenyl)-6-methyl-5-(2,4,6-trifluorophenyl)-3-pyridinyl]ethanone]
- pest or weed control at 200 ppm [1]: 80%
- pest or weed control at 200 ppm [2]: 97%
- pest or weed control at 200 ppm [3]: 0%
- pest or weed control at 200 ppm [4]: 87%
- pest or weed control at 200 ppm [5]: 90%
- pest or weed control at 200 ppm [6]: 94%
- pest or weed control at 200 ppm [7]: 49%
- pest or weed control at 200 ppm [8]: 0%

SMILES: C=C(C)c1cnc(C)c(-c2c(F)cc(F)cc2F)c1-c1cc(OC)cc(OC)c1 [Compound 43]
- Test B rating (% disease control) [1]: 100%
- Test E rating (% disease control) [2]: 100%
- Test D rating (% disease control) [3]: 78%
- Test C rating (% disease control) [4]: 100%
- Test F rating (% disease control) [5]: 100%
- Test A rating (% disease control) [6]: 100%
- Test G rating (% disease control) [7]: 100%

SMILES: COc1cc(OC)cc(-c2c(C(C)(C)O)cnc(C)c2-c2c(F)cccc2F)c1 [Compound 42]
- Test B rating (% disease control) [1]: 100%
- Test D rating (% disease control) [3]: 98%
- Test C rating (% disease control) [4]: 100%
- Test F rating (% disease control) [5]: 97%
- Test A rating (% disease control) [6]: 100%
- Test G rating (% disease control) [7]: 86%
- Test H rating (% disease control) [8]: 0%

SMILES: COc1cc(OC)cc(-c2c(C(C)(C)O)cnc(C)c2-c2ccccc2F)c1 [Compound 18]
- Test B rating (% disease control) [1]: 99%
- Test D rating (% disease control) [3]: 0%
- Test C rating (% disease control) [4]: 100%
- Test F rating (% disease control) [5]: 97%
- Test A rating (% disease control) [6]: 98%
- Test G rating (% disease control) [7]: 47%
- Test H rating (% disease control) [8]: 0%

SMILES: COc1cc(OC)cc(-c2c(C(C)C)cnc(C)c2-c2c(F)cccc2F)c1 [Compound 45]
- Test B rating (% disease control) [1]: 100%
- Test E rating (% disease control) [2]: 94%
- Test D rating (% disease control) [3]: 0%
- Test C rating (% disease control) [4]: 100%
- Test F rating (% disease control) [5]: 100%
- Test A rating (% disease control) [6]: 99%
- Test G rating (% disease control) [7]: 99%

SMILES: COc1cc(OC)cc(-c2c(C(C)(C)O)c[n+]([O-])c(C)c2-c2ccccc2)c1 [Compound 52]
- Test B rating (% disease control) [1]: 0%
- Test E rating (% disease control) [2]: 0%
- Test D rating (% disease control) [3]: 0%
- Test F rating (% disease control) [5]: 0%
- Test A rating (% disease control) [6]: 25%
- Test G rating (% disease control) [7]: 0%
- Test H rating (% disease control) [8]: 0%

SMILES: COc1cc(OC)cc(-c2c(C3=CCCCC3)cnc(C)c2-c2ccc(F)cc2)c1 [Compound 46]
- Test B rating (% disease control) [1]: 95%
- Test E rating (% disease control) [2]: 31%
- Test D rating (% disease control) [3]: 0%
- Test F rating (% disease control) [5]: 98%
- Test A rating (% disease control) [6]: 81%
- Test G rating (% disease control) [7]: 0%
